Measurements published in US20040224844A1, “Use of hydroxyaromatic compounds as safeners” (Bayer CropScience GmbH, priority 2003, published 2004).

Assays:
Type in all cases: in vivo
[1] = tested on: Zea mays (corn), cv. 'Lorenzo'; test: Post-emergence application of herbicide and safener by the tank mix method: crop damage; conditions: for Safener action as % damage reduction in crop plants: ZEAMA
Text: (§1) Seeds of various crop plants and weed species were sown in sandy loam soil in round plastic pots of a diameter of 13 cm and covered with a layer of sandy loam of a thickness of about 1 cm. The pots were placed in a greenhouse under favorable growth conditions for a period of about two to three weeks, allowing the plants to reach a growth stage of 2 to 4 leaves. The herbicides in the form of liquid (for example emulsion concentrates) or dry (for example water-dispersible powders) formulations were mixed with a standard additive (based on rapeseed oil methyl ester), diluted with deionized water to the required concentrations and applied to the green parts of the plants and the uncovered part of the soil surface with a spray bar using a water application rate of 300 liters per hectare. In the experiment shown below, safener and the herbicide foramsulfuron were in each case used as 20 percent strength water-dispersible powder (results see table 1.2.1).
(§2) The pots were placed in a greenhouse under favorable growth conditions. Visual scoring of the herbicidal action was carried out four weeks after the herbicide application. Evaluation was carried out on a percentage basis by comparison with untreated control plants (0%=no noticeable effect compared with the untreated plant, 100%=treated plant dies).

[2] = tested on: Zea mays (corn), cv. 'Lorenzo'; test: Pre-emergence application of herbicide and safener by the tank mix method: crop damage
Procedure: (§3) Seeds of various crop plants and weed species were sown in sandy loam soil in plastic pots of a diameter of 13 cm and covered with a layer of sandy loam of a thickness of about 1 cm. Herbicides and safeners in the form of liquid (for example emulsion concentrates) or dry (for example water-dispersible powders) formulations were diluted with deionized water to the required concentration and applied to the surface of the soil with a spray bar using a water application rate of 300 liters per hectare. In the experiment shown below, the safeners were used as 20 percent strength water-dispersible powders and the herbicide isoxaflutole was used as an aqueous suspension concentrate (see table 1.1.1).
as §2

Amaranthus retroflexus = test: Post-emergence application of herbicide and safener by the tank mix method: herbicidal action; conditions: four weeks
Text: as §1, §2

Setaria viridis [3] = test: as above; conditions: four weeks
Text: as §1, §2

[4] = tested on: Zea mays (corn), cv. 'Lorenzo'; test: Post-emergence application of herbicide after seed dressing with safener; conditions: for Safener action as % damage reduction in crop plants: ZEAMA
Procedure: (§4) The number of crop plant seeds required for each application rate of safener was calculated. Sufficient seeds were weighed out into glass bottles having a screw-on lid. The volume of the glass bottles was approximately twice that of the seeds weighed out.
(§5) The safeners were formulated as 20 percent strength water-dispersible powders. These formulations were weighed out to give the required application rates (g of a.i./kg of seed). The samples were added to the seeds in the glass containers, and sufficient water to form a suitable seed dressing was then added. The glass bottles were closed and then mounted in an overhead shaker (which turns the bottles at moderate speed for a period of up to one hour) so that the seeds were uniformly covered with the seed dressing. The bottles were opened and the seeds were ready for use in pre-emergence or post-emergence experiments, as described below.
as §1, with “The seeds treated with safener” for “Seeds of various crop plants”, “untreated seeds” for “weed species”, “2.3.1).” for “1.2.1).”
as §2, with “base” for “basis”

[5] = tested on: Glycine max (soybean), cv. 'Lambert'; test: Pre-emergence application of herbicide after seed dressing with safener; conditions: for Safener action as % damage reduction in crop plants: GLXMA
Procedure: as §4, §5
(§6) The seeds which had been treated with safeners and untreated seeds as controls were sown in sandy loam soil in round plastic pots of a diameter of 13 cm and covered with a layer of sandy loam of a thickness of about 1 cm. The herbicides in the form of liquid (for example emulsion concentrates) or dry (for example water-dispersible powders) formulations were diluted with deionized water to the required concentrations and applied to the surface of the soil with a spray bar using a water application rate of 300 liters per hectare. In the two experiments shown below (results see tables 2.2.1 and 2.2.2), the herbicide isoxaflutole was used as an aqueous suspension concentrate.
as §2

[6] = tested on: Zea mays (corn), cv. 'Lorenzo'; test: as above; conditions: for Safener action as % damage reduction in crop plants: ZEAMA
Procedure: as §4, §5, §6, §2

Chenopodium album = test: Pre-emergence application of herbicide and safener by the tank mix method: herbicidal action; conditions: four weeks
Procedure: as §3, §2

Setaria viridis [7] = test: as above; conditions: four weeks
Procedure: as §3, §2

[8] = safener 250 g of a.i./ha + herbicide H2 (foramsulfuron) 40 g of a.i./ha, post-emergence tank mix
[9] = safener 250 g of a.i./ha + herbicide H1 (isoxaflutole) 100 g of a.i./ha, pre-emergence tank mix
[10] = seed dressing with safener 1 g of a.i./kg of seed, herbicide H2 (foramsulfuron) 40 g of a.i./ha post-emergence
[11] = seed dressing with safener 1 g of a.i./kg of seed, herbicide H1 (isoxaflutole) 100 g of a.i./ha pre-emergence
[12] = seed dressing with safener 1 g of a.i./kg of seed, herbicide H1 (isoxaflutole) 100 g of a.i./ha pre-emergence, four weeks
[13] = herbicide H1 (isoxaflutole) 100 g of a.i./ha alone, no safener, pre-emergence
[14] = herbicide H2 (foramsulfuron) 40 g of a.i./ha alone, no safener, post-emergence

SMILES	Safener action as % damage reduction in crop plants [1, 8] [%]	Safener action as % damage reduction in ZEAMA [2, 9] [%]	Herbicidal action as % damage in AMARE (Amaranthus retroflexus; [8]) [%]	Herbicidal action as % damage in SETVI (Setaria viridis [3]; [8]) [%]	Safener action as % damage reduction in crop plants [4, 10] [%]	% damage in ZEAMA ([4]; in vivo) [%]	Safener action as % damage reduction in crop plants [5, 11] [%]	% damage in GLXMA ([5]; in vivo) [%]	Safener action as % damage reduction in crop plants [6, 11] [%]	% damage in ZEAMA ([6]; in vivo) [%]	Herbicidal action in CHEAL (in %) (Chenopodium album; [9]) [%]	Herbicidal action in SETVI (in %) (Setaria viridis [7]; [9]) [%]	other results
O=C(O)c1cc(O)cc(O)c1 [Comp. 1050, 3,5-dihydroxybenzoic acid]	69	88	90	97	86	5	64	28	75	5	97	96	–
COc1cc(C(=O)O)cc(OC)c1O [Comp. 1272, 3,5-dimethoxy-4-hydroxybenzoic acid]	53	52	92	95	79	–	55	–	50	–	94	98	% damage in ZEAMA ([1]; safener 250 g of a.i./ha + herbicide H2 (foramsulfuron) 40 g of a.i./ha, post-emergence tank mix, visual scoring four weeks after application): 15%; % damage in ZEAMA ([2]; safener 250 g of a.i./ha + herbicide H1 (isoxaflutole) 100 g of a.i./ha, pre-emergence tank mix, visual scoring four weeks after application): 12%; % damage in ZEAMA ([4]; seed dressing with safener 1 g of a.i./kg of seed, herbicide H2 (foramsulfuron) 40 g of a.i./ha post-emergence, four weeks): 7.5%; % damage in GLXMA [5, 12]: 35%; % damage in ZEAMA [6, 12]: 10%
CS(=O)(=O)c1cc(C(F)(F)F)ccc1C(=O)c1cnoc1C1CC1 [Herbicide H1, isoxaflutole, reference compound]	–	–	–	–	–	–	–	78	–	20	–	–	% damage in ZEAMA ([2]; in vivo): 25%; Herbicidal action in CHEAL (in %) (Chenopodium album; [13]): 94%; Herbicidal action in SETVI (in %) (Setaria viridis [7]; [13]): 96%
COc1cc(OC)nc(NC(=O)NS(=O)(=O)c2cc(NC=O)ccc2C(=O)N(C)C)n1 [Herbicide H2, foramsulfuron, reference compound]	–	–	–	–	–	35	–	–	–	–	–	–	% damage in ZEAMA ([1]; in vivo): 32%; Herbicidal action as % damage in AMARE (Amaranthus retroflexus; [14]): 90%; Herbicidal action as % damage in SETVI (Setaria viridis [3]; [14]): 93%
